For orientation: IC50 means the concentration at which inhibition is half-maximal. A lower IC50 goes with higher potency.

Structures are written as SMILES.

In the first test the target is T1, Axl (Homo sapiens, UniProt P30530).
T1 construct: endogenous in cells; host or cells: HeLa cells
T1 sequence (P30530 26-894): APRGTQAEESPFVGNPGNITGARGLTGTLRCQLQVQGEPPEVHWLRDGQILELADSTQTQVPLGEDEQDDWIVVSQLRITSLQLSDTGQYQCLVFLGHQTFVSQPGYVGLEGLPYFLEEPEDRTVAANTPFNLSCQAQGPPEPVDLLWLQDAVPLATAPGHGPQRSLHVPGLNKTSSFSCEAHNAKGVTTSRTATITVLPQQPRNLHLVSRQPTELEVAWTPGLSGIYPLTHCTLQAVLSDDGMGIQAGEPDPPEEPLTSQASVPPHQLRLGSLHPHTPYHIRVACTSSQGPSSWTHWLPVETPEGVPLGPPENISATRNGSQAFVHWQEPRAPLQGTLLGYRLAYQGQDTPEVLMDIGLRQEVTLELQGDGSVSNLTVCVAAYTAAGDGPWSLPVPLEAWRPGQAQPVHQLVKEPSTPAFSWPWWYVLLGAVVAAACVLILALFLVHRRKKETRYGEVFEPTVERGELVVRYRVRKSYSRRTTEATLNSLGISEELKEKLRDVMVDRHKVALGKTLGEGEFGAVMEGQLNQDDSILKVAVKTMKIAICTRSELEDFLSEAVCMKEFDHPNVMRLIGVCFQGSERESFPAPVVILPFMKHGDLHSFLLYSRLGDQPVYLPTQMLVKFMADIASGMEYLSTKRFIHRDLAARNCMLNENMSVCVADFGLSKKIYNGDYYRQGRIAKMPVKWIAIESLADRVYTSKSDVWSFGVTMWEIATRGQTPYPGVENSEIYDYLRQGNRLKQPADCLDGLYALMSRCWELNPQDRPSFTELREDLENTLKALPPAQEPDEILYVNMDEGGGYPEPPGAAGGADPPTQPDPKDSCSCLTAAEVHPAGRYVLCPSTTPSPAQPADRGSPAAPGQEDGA
Nature of the test: Phospho-Akt in-cell Western assay. Type of test: cell-based. As to conditions: Hela cells, stimulated by Axl-antibody cross-linking, phospho-Akt chemiluminescence; Table 1, formula (Ia). How it is done: Phospho-Akt in-Cell Western Assay
The compounds of the invention were tested in the following assay for their ability to inhibit Axl activity.
• Cell culture plate: 96 well assay plate (Corning 3610), white, clear bottom, tissue-culture treated. • Cells: Hela cells. • Starvation medium: For Axl stimulation: 0.5% FCS (fetal calf serum) in DMEM, plus Axl/Fc (extracellular domain of AXL fused to imunoglobulin Fc region) (R&D, 154-AL) 500 ng/mL. • For EGF (epidermal growth factor) stimulation: 0.5% FCS in DMEM (Dulbecco's modified Eagles medium). • Poly-L-Lysine 0.01% solution (the working solution): 10 μg/ml, dilute In PBS (phosphate buffered saline). • Axl antibody cross-linking: • 1st: Mouse anti-Axl (R&D, MAB154). • 2nd: Biotin-SP-conjugated AffiniPure goat anti-mouse IgG (H+L) (Jackson ImmunoResearch #115-065-003). • Fixing buffer: 4% formaldehyde in PBS. • Wash buffer: 0.1% TritonX-100 in PBS. • Quenching buffer: 3% H2O2, 0.1% Azide in wash buffer, Azide and hydrogen peroxide (H2O2) are added fresh. • Blocking buffer: 5% BSA in TBST (tris buffered saline plus 0.1% Tween 20). • Primary antibody: Rabbit anti-human Phospho-Akt antibody (Cell Signaling 9271): 1×250 diluted in blocking buffer. • Secondary antibody: HRP (horse radish peroxidase)-conjugated Goat anti-Rabbit secondary, stock solution: Jackson ImmunoResearch (Goat anti-Rabbit HRP, #111-035-144) 1:1 diluted in glycerol, store at −20° C. The working solution: 1×2000 dilution of stock in blocking buffer. • Chemiluminescent working solution (Pierce, 37030): SuperSignal ELISA (enzyme linked immunosorbant assay) Pico Chemiluminescent substrate. • Crystal Violet solution: Stock: 2.5% Crystal violet in methanol, filtered and kept at ambient temperature. The working solution: dilute the stock 1:20 with PBS immediately before use. • 10% SDS: working solution: 5% SDS (sodium dodecylsulfate), diluted in PBS Methods: Day 1:
A 96 well TC (tissue culture treated) plate was coated with 10 μg/mL poly-L-Lysine at 37° C. for 30 min, washed twice with PBS, and air-dried for 5 minutes before cells were added. Hela cells were seeded at 10,000 cells/well and the cells were starved in 100 μL starvation medium containing Axl/Fc for 24 hrs.
The cells were pre-treated with test compounds by adding 100 μL of 2× test compound to the starvation medium on the cells. The cells were incubated at 37° C. for 1 hr before stimulation.
The cells were stimulated by Axl-antibody cross-linking as follows: A 5× 1st/2nd Axl antibody mixture was made (37.5 μg/mL 1st/100 μg/mL 2nd) in starvation medium and nutated at 4° C. with thorough mixing for 1-2 hours for clustering. The resulting mix was warmed to 37° C. 50 μL of 5× Axl 1st/2nd of antibody cluster was added to the cells and the cells were incubated at 37° C. for 5 min.
After 5 minutes stimulation, the plate was flicked to remove medium and the plate was tapped onto paper towels. Formaldehyde (4.0% in PBS, 100 μL) was added to fix the cells and the cells were incubated at ambient temperature for 20 min without shaking.
The cells were washed with a plate washer buffer to remove the formaldehyde solution. The plate was flicked to removed excess wash buffer and tapped onto paper towels. Quenching buffer (100 μL) was added to each well and the cells were incubated at ambient temperature for 20 minutes without shaking.
The cells were washed with a plate washer buffer to remove the quenching buffer. Blocking buffer (100 μL) was added and the cells were incubated at ambient temperature for at least an hour with gentle shaking.
The cells were washed with a plate washer buffer and diluted primary antibody (50 μL) was added to each well (blocking buffer was added to the negative control wells instead). The plates were incubated overnight at 4° C. with gentle shaking.
The wash buffer was removed, diluted secondary antibody (100 μL) was added, and the cells were incubated at ambient temperature for 1 hour with gentle shaking. […]
`CC(N[C@H]1CCc2ccc(Nc3nc(N)n(-c4cc5c(nn4)-c4ccccc4CCC5)n3)cc2CC1)C(C)(C)C` (stereo partly drawn) [Compound 25, 1-(6,7-dihydro-5H-benzo[6,7]cyclohepta[1,2-c]pyridazin-3-yl)-N^3-((7S)-7-((3,3-dimethylbut-2-yl)amino)-6,7,8,9-tetrahydro-5H-benzo[7]annulene-2-yl)-1H-1,2,4-triazole-3,5-diamine] showed an IC50 of 1000 to 10000 nM.
Still for that read-out and setting: the same measure for `CC(C)(C)OC(=O)N[C@H]1CCc2ccc(Nc3nc(N)n(-c4cc5c(nn4)-c4cccnc4CCC5)n3)cc2CC1` [Compound 44]: more than 20000 nM; for `CC=CCN(CCCC)[C@H]1CCc2ccc(Nc3nc(N)n(-c4cc5c(nn4)-c4ccccc4CCC5)n3)cc2CC1` [Compound 43, 1-(6,7-dihydro-5H-benzo[6,7]cyclohepta[1,2-c]pyridazin-3-yl)-N^3-((7S)-7-(butyl(but-2-enyl)amino)-6,7,8,9-tetrahydro-5H-benzo[7]annulene-2-yl)-1H-1,2,4-triazole-3,5-diamine]: less than 1000 nM; for `Nc1nc(Nc2ccc3c(c2)CC[C@@H](NC2CCCC2)CC3)nn1-c1cc2c(nn1)-c1ccccc1CCC2` [Compound 22, 1-(6,7-dihydro-5H-benzo[6,7]cyclohepta[1,2-c]pyridazin-3-yl)-N^3-((7S)-7-(cyclopentylamino)-6,7,8,9-tetrahydro-5H-benzo[7]annulene-2-yl)-1H-1,2,4-triazole-3,5-diamine]: less than 1000 nM.
On the same count and under the same terms, the same measure for `Nc1nc(Nc2ccc3c(c2)CC[C@@H](N(CC2CC2)CC2CC2)CC3)nn1-c1cc2c(nn1)-c1cccnc1CCC2` [Compound 50, 1-(6,7-dihydro-5H-pyrido[2′,3′:6,7]cyclohepta[1,2-c]pyridazin-3-yl)-N^3-((7S)-7-(di(cyclopropylmethyl)amino)-6,7,8,9-tetrahydro-5H-benzo[7]annulene-2-yl)-1H-1,2,4-triazole-3,5-diamine]: less than 1000 nM.
Molecule `CN(C)[C@H]1CCc2ccc(Nc3nc(N)n(-c4cc5c(nn4)-c4ccccc4CCC5)n3)cc2CC1` [Compound 31, 1-(6,7-dihydro-5H-benzo[6,7]cyclohepta[1,2-c]pyridazin-3-yl)-N^3-((7S)-7-(dimethylamino)-6,7,8,9-tetrahydro-5H-benzo[7]annulene-2-yl)-1H-1,2,4-triazole-3,5-diamine] registered an IC50 of less than 1000 nM.
Molecule `Nc1nc(Nc2ccc3c(c2)CC[C@@H](NC2CCCCC2)CC3)nn1-c1cc2c(nn1)-c1cccnc1CCC2` [Compound 53, 1-(6,7-dihydro-5H-pyrido[2′,3′:6,7]cyclohepta[1,2-c]pyridazin-3-yl)-N^3-((7S)-7-(cyclohexylamino)-6,7,8,9-tetrahydro-5H-benzo[7]annulene-2-yl)-1H-1,2,4-triazole-3,5-diamine] yielded an IC50 of less than 1000 nM.
As to `COC(=O)CN(C)C1CCc2ccc(Nc3nc(N)n(-c4cc5c(nn4)-c4ccccc4CCC5)n3)cc2CC1` (stereo not drawn) [Compound 4, 1-(6,7-dihydro-5H-benzo[6,7]cyclohepta[1,2-c]pyridazin-3-yl)-N^3-(7-((methoxycarbonylmethyl)(methyl)amino)-6,7,8,9-tetrahydro-5H-benzo[7]annulene-2-yl)-1H-1,2,4-triazole-3,5-diamine], the IC50 is less than 1000 nM.
For `Nc1nc(Nc2ccc3c(c2)CC[C@@H](NC2CCC2)CC3)nn1-c1cc2c(nn1)-c1cccnc1CCC2` [Compound 52, 1-(6,7-dihydro-5H-pyrido[2′,3′:6,7]cyclohepta[1,2-c]pyridazin-3-yl)-N^3-((7S)-7-(cyclobutylamino)-6,7,8,9-tetrahydro-5H-benzo[7]annulene-2-yl)-1H-1,2,4-triazole-3,5-diamine], the IC50 was less than 1000 nM.
Consider `Nc1nc(Nc2ccc3c(c2)CC[C@@H](N(CC2CCCC2)CC2CCCC2)CC3)nn1-c1cc2c(nn1)-c1ccccc1CCC2` [Compound 35, 1-(6,7-dihydro-5H-benzo[6,7]cyclohepta[1,2-c]pyridazin-3-yl)-N^3-((7S)-7-(di(cyclopentylmethyl)amino)-6,7,8,9-tetrahydro-5H-benzo[7]annulene-2-yl)-1H-1,2,4-triazole-3,5-diamine], for which the IC50 lay within 1000 to 10000 nM.
`Nc1nc(Nc2ccc3c(c2)CC[C@@H](NCC2CCCC2)CC3)nn1-c1cc2c(nn1)-c1ccccc1CCC2` [Compound 36, 1-(6,7-dihydro-5H-benzo[6,7]cyclohepta[1,2-c]pyridazin-3-yl)-N^3-((7S)-7-((cyclopentylmethyl)amino)-6,7,8,9-tetrahydro-5H-benzo[7]annulene-2-yl)-1H-1,2,4-triazole-3,5-diamine] showed an IC50 of less than 1000 nM.
On the same count and under the same terms, the same measure for `CCOC(=O)C1CCN(C2CCc3ccc(Nc4nc(N)n(-c5cc6c(nn5)-c5ccccc5CCC6)n4)cc3CC2)CC1` (stereo not drawn) [Compound 6, 1-(6,7-dihydro-5H-benzo[6,7]cyclohepta[1,2-c]pyridazin-3-yl)-N^3-(7-(4-(ethoxycarbonyl)piperidin-1-yl)-6,7,8,9-tetrahydro-5H-benzo[7]annulene-2-yl)-1H-1,2,4-triazole-3,5-diamine]: less than 1000 nM.

Staying with this test, now noted: Hela cells, stimulated by Axl-antibody cross-linking, phospho-Akt chemiluminescence; Table 2, formula (Ib).
Regarding `CC(C)(C)OC(=O)N[C@H]1CCc2ccc(Nc3nc(N)nn3-c3cc4c(nn3)-c3ccccc3CCC4)cc2CC1` [Compound 14, 1-(6,7-dihydro-5H-benzo[6,7]cyclohepta[1,2-c]pyridazin-3-yl)-N^5-((7S)-7-(t-butoxycarbonylamino)-6,7,8,9-tetrahydro-5H-benzo[7]annulene-2-yl)-1H-1,2,4-triazole-3,5-diamine], the IC50 is more than 20000 nM.
`Nc1nc(Nc2cccc3c2CCC(N2CCCC2)CC3)n(-c2cc3c(nn2)-c2ccccc2CCC3)n1` (stereo not drawn) [Compound 12, 1-(6,7-dihydro-5H-benzo[6,7]cyclohepta[1,2-c]pyridazin-3-yl)-N^5-(7-(pyrrolidin-1-yl)-6,7,8,9-tetrahydro-5H-benzo[7]annulene-1-yl)-1H-1,2,4-triazole-3,5-diamine]: the IC50 is less than 1000 nM.

Staying with this test, now noted: Hela cells, stimulated by Axl-antibody cross-linking, phospho-Akt chemiluminescence; Table 3, formula (II).
Regarding `Nc1nc(Nc2ccc(N3CCC(N4CCCC4)CC3)c(F)c2)nn1-c1cc2c(nn1)-c1cccnc1CCC2` [Compound 45, 1-(6,7-dihydro-5H-pyrido[2′,3′:6,7]cyclohepta[1,2-c]pyridazin-3-yl)-N^3-(3-fluoro-4-(4-(pyrrolidin-1-yl)piperidin-1-yl)phenyl)-1H-1,2,4-triazole-3,5-diamine], the IC50 is more than 20000 nM.

Source of the values: patent US9173882B2, “Polycyclic heteroaryl substituted triazoles useful as Axl inhibitors” (Rigel Pharmaceuticals, Inc., priority 2008, dated 2015).
